Results from patent US20240261224A1, “FORMULATION OF A PAN-JAK INHIBITOR” (KINASET THERAPEUTICS, INC., priority 2022, published 2024).
Read-outs that look alike come from different tables or passages of the source.

Key:
[1] = Phase 1 clinical trial adverse events summary (Part 1 healthy volunteers); type: in vivo, human; conditions: for Severe/serious TEAE, n (%) / Subjects with TEAE n, (%) / TEAE leading to discontinuation: Part 1 healthy volunteers
Procedure: A status summary of the phase 1 clinical trial recruitment is shown below in Table 18. Capsules filled with blend 2a were used to achieve a 0.6 mg target dose of Compound I (0.2 mg capsules×3). Capsules filled with blend 4 were used to achieve 2.0 mg, 4.0 mg, 6.0 mg, 8.0 mg, and 12.0 mg target doses of Compound I (2.0 mg capsule×1; 4.0 mg capsule×1; 2.0 mg capsules×3; 4.0 mg capsules×2; and 4.0 mg capsules×3, respectively). Twice daily dosing (BID) was achieved by repeating the preceding regime. For example, an 8.0 mg BID dosing regime is achieved by administering two doses of 4.0 mg capsules×2.

JAK1 = JAK1 (Homo sapiens, UniProt P23458); conditions: cited from earlier work
[2] = 13-week inhalation toxicology study, NHP model; type: in vivo; conditions: in vivo, inhaled or intranasal, NHP; for AUC(0-t): monkey, read-out: AUC0-24
Procedure: (§1) Lactose/MgSt-based formulations of Compound I were evaluated during a 13-week inhalation toxicology study in an NHP model, and the corresponding results are presented in Table 16 below. […] The NOAEL was assigned to the highest dose study (7.9 mg/kg/day).

NHP = assay: 13-week inhalation toxicology study, NHP model; type: in vivo
Procedure: as §1

[3] = Margin of safety study versus 13-wk rat NOAEL; type: in vivo
From the text: Results from the margin of safety study of lactose/MgSt-based formulations of Compound I are shown below in Table 17.

[4] = APSD, MMAD, FPM and FPF determination (NGI, 90 L/min); type: physicochemical; conditions: for Fine particle mass (≤5 μm): in µg (unit assumed)
Procedure: Cup coating agent was prepared by mixing 150 mL of a mixture of Brij® 35, ethanol, and glycerol with 850 ml of ethanol.
The cup coating agent was prepared, and the NGI was assembled. The collection cups were then coated with cup coating agent and then proceeded to dry. A PALL® A/E 76 mm filter was placed into the back-up filter and attached to the NGI. Approximately 15 mL of diluent was added into the pre-separator insert. The flow rate was set to 90 L/min and the capsule was pierced. One dose was discharged into the NGI by initiating the time-controlled solenoid valve for 2.70 seconds. Sample diluent was added (10 mL for 0.2 mg and 2.0 mg doses and 20 mL for 4.0 mg doses), and the collection cups were agitated on the NGI Gentle Rocker for 10 minutes. The induction port was added 40 mL of sample diluent and was shaken for 1 minute. The pre-separator was added 50 mL of sample diluent and was shaken for 1 minute. The back-up filter was transferred to a crystallizing dish with 20 mL of sample diluent and was then sonicated for 5 minutes. The capsule from each determination was then transferred to a 20 mL volumetric flask and sample diluent was added. The suspension was then shaken and sonicated until fully dissolved. The resulting solution equilibrated under ambient conditions and was then made up to volume. Each Monodose RS01 was placed into an individual plastic bag and 20 mL of recovery solution was added. The bag was shaken by hand for 1 minute and filtered prior to HPLC analysis.

[5] = 4.0 mg BID vs 13-week rat study
[6] = 2.0 mg capsule, 12 months 30/65
[7] = 2.0 mg capsule, 18 months 30/65
[8] = 2.0 mg capsule, 24 months 30/65
[9] = 4.0 mg capsule, 12 months 30/65

Chain of JAK1 (P23458 whole entry): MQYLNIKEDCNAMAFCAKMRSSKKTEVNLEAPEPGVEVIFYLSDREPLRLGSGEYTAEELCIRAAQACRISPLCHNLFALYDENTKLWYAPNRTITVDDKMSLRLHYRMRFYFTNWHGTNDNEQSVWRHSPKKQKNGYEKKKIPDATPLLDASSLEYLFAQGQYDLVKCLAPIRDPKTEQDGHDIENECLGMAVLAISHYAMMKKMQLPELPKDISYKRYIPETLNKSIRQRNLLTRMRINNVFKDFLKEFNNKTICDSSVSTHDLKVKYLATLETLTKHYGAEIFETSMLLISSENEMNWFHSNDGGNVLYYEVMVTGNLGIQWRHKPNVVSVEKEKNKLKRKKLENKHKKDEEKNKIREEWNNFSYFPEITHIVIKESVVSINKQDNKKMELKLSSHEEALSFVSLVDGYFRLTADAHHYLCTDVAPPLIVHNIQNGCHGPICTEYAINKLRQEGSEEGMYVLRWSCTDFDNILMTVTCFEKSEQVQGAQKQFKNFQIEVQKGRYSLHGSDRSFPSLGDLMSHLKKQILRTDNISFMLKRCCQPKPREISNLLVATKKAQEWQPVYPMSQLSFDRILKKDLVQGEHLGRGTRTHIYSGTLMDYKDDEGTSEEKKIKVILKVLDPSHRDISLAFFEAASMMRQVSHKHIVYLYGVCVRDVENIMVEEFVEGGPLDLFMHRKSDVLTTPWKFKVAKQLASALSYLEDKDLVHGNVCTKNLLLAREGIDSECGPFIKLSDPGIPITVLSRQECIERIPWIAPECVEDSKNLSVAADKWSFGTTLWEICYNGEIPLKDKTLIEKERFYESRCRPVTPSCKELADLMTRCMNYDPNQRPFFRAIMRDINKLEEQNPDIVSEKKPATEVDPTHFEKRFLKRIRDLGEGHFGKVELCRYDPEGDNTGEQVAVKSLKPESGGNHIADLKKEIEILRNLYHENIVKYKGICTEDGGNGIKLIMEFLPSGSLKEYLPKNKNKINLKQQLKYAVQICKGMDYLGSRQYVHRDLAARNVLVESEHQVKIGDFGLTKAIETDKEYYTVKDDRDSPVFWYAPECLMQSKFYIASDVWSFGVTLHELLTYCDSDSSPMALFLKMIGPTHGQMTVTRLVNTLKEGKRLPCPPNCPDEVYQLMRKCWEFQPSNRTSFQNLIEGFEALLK

## Cn1c(=O)n([C@H]2CCCN(C(=O)CC#N)C2)c2nc(-c3cnn4ccccc34)ccc21 [Compound I, (S)-3-(3-(1-methyl-2-oxo-5-(pyrazolo[1,5-a]pyridine-3-yl)-1H-imidazo[4,5-b]pyridine-3(2H)-yl)piperidin-1-yl)-3-oxopropanenitrile]
[1]; 0.2 mg (n = 6)
  Severe/serious TEAE, n (%): 0
  Subjects with TEAE n, (%): 0
  TEAE leading to discontinuation: 0
[1]; 0.6 mg (n = 7)
  Severe/serious TEAE, n (%): 0
  Subjects with TEAE n, (%): 2 (29%)
  TEAE leading to discontinuation: 1
[1]; 2.0 mg (n = 6)
  Severe/serious TEAE, n (%): 0
  Subjects with TEAE n, (%): 2 (33%)
  TEAE leading to discontinuation: 0
[1]; 4.0 mg (n = 6)
  Severe/serious TEAE, n (%): 0
  Subjects with TEAE n, (%): 0
  TEAE leading to discontinuation: 0
[1]; 6.0 mg (n = 6)
  Severe/serious TEAE, n (%): 0
  Subjects with TEAE n, (%): 0
  TEAE leading to discontinuation: 0
[1]; 12.0 mg (n = 6)
  Severe/serious TEAE, n (%): 0
  Subjects with TEAE n, (%): 0
  TEAE leading to discontinuation: 0
[1]; phase 1 clinical trial
  Changes in cardiovascular endpoints (ECG and vital signs): No treatment-related clinically relevant changes
  Severe or serious adverse events: No severe or serious adverse events were observed
[1]; phase 1 clinical trial, per investigator
  Changes in hematology, biochemistry or urinalysis parameters including those influenced by JAK inhibition: No clinically relevant changes
JAK1
  Inhibition of JAK1: potent inhibitor
[2]; 0.9 mg/kg/day, inhaled 0.9 mg/kg/day, Day 1
  AUC(0-t): 203 ng·h/mL
[2]; 0.9 mg/kg/day, inhaled 0.9 mg/kg/day, Week 13
  AUC(0-t): 167 ng·h/mL
[2]; 2.7 mg/kg/day, inhaled 2.7 mg/kg/day, Day 1
  AUC(0-t): 408 ng·h/mL
[2]; 2.7 mg/kg/day, inhaled 2.7 mg/kg/day, Week 13
  AUC(0-t): 361 ng·h/mL
[2]; 8 mg/kg/day, inhaled 8.0 mg/kg/day, Day 1
  AUC(0-t): 903 ng·h/mL
[2]; 8 mg/kg/day, inhaled 8.0 mg/kg/day, Week 13
  AUC(0-t): 1160 ng·h/mL
[2]; non-human primate (NHP), 13-week inhalation, highest dose
  NOAEL at 13 weeks: 7.9 mg/kg/day
NHP; NHP, 13-week inhalation
  Treatment-related effects on clinical signs, bodyweight, food consumption, ophthalmoscopy, blood chemistry, urinalysis or macroscopic pathology: No treatment-related effects
NHP; target delivered dose 0.9 mg/kg/day (low dose)
  MMAD: 1.9 μm
NHP; target delivered dose 2.7 mg/kg/day (mid dose)
  MMAD: 2.3 μm
NHP; target delivered dose 8.0 mg/kg/day (high dose)
  MMAD: 2.7 μm
[3]; [5]
  MoS versus inhalation toxicology study NOAELs, Lung exposure (mg/g lung): 3925
  MoS versus inhalation toxicology study NOAELs, Plasma (group mean AUC0-24): 85.6
[3]; 4.0 mg BID vs 13-wk rat NOAEL
  Group mean AUC0-24 MoS (Phase 1 clinical study versus inhalation tox study NOAELs): 5.6
[3]; 4.0 mg BID vs 13-wk rat NOAEL, adjusted for respirability assuming 10%, 25% and 100% lung deposition in rat, NHP and human
  Lung dose of Compound I (mg/g) MoS: 25
[4]; 2.0 mg and 4.0 mg formulations aerosolized, Tables 11 and 12
  MMAD: 1.8-2.0 μm
[4]; 2.0 mg and 4.0 mg formulations, Tables 11 and 12, up to 24 months
  FPF: 73-78%
[4]; 2.0 mg capsule, 1 month 30/65
  FPF % (FPM/Impactor dose): 75.4%
  MMAD: 2.0 μm
  Fine particle mass (≤5 μm): 1143.6
[4]; 2.0 mg capsule, 1 month 40/75
  FPF % (FPM/Impactor dose): 75.9%
  MMAD: 1.9 μm
  Fine particle mass (≤5 μm): 1046.6
[4]; 2.0 mg capsule, 3 months 30/65
  FPF % (FPM/Impactor dose): 77.2%
  MMAD: 1.9 μm
  Fine particle mass (≤5 μm): 1096.5
[4]; 2.0 mg capsule, 3 months 40/75
  FPF % (FPM/Impactor dose): 77.2%
  MMAD: 1.8 μm
  Fine particle mass (≤5 μm): 1090.9
[4]; 2.0 mg capsule, 6 months 30/65
  FPF % (FPM/Impactor dose): 74.9%
  MMAD: 1.9 μm
  Fine particle mass (≤5 μm): 1074.3
[4]; 2.0 mg capsule, 6 months 40/75
  FPF % (FPM/Impactor dose): 74.7%
  MMAD: 1.9 μm
  Fine particle mass (≤5 μm): 1069.6
[4]; 2.0 mg capsule, 9 months 30/65
  FPF % (FPM/Impactor dose): 76.6%
  MMAD: 1.9 μm
  Fine particle mass (≤5 μm): 1075.9
[4]; [6]
  FPF % (FPM/Impactor dose): 77.3%
  MMAD: 1.9 μm
  Fine particle mass (≤5 μm): 1098.4
[4]; [7]
  FPF % (FPM/Impactor dose): 77.0%
  MMAD: 1.9 μm
  Fine particle mass (≤5 μm): 1162.7
[4]; [8]
  FPF % (FPM/Impactor dose): 78.0%
  MMAD: 2.0 μm
  Fine particle mass (≤5 μm): 1083.1
[4]; 2.0 mg capsule, Release
  FPF % (FPM/Impactor dose): 73.5%
  MMAD: 2.0 μm
  Fine particle mass (≤5 μm): 1006.7
[4]; 4.0 mg capsule, 1 month 30/65
  FPF % (FPM/Impactor dose): 75.1%
  MMAD: 1.8 μm
  Fine particle mass (≤5 μm): 2181.6
[4]; 4.0 mg capsule, 1 month 40/75
  FPF % (FPM/Impactor dose): 73.6%
  MMAD: 1.9 μm
  Fine particle mass (≤5 μm): 2130.4
[4]; 4.0 mg capsule, 3 months 30/65
  FPF % (FPM/Impactor dose): 75.4%
  MMAD: 1.8 μm
  Fine particle mass (≤5 μm): 2167.8
[4]; 4.0 mg capsule, 3 months 40/75
  FPF % (FPM/Impactor dose): 72.9%
  MMAD: 1.9 μm
  Fine particle mass (≤5 μm): 2059.2
[4]; 4.0 mg capsule, 6 months 30/65
  FPF % (FPM/Impactor dose): 73.6%
  MMAD: 1.9 μm
  Fine particle mass (≤5 μm): 2098.3
[4]; 4.0 mg capsule, 6 months 40/75
  FPF % (FPM/Impactor dose): 74%
  MMAD: 1.8 μm
  Fine particle mass (≤5 μm): 2090
[4]; 4.0 mg capsule, 9 months 30/65
  FPF % (FPM/Impactor dose): 74%
  MMAD: 1.8 μm
  Fine particle mass (≤5 μm): 2116.2
[4]; [9]
  FPF % (FPM/Impactor dose): 76.5%
  MMAD: 1.9 μm
  Fine particle mass (≤5 μm): 2182.2
[4]; 4.0 mg capsule, 18 months
  FPF % (FPM/Impactor dose): 75.4%
  MMAD: 1.9 μm
  Fine particle mass (≤5 μm): 2254.8
[4]; 4.0 mg capsule, 24 months
  FPF % (FPM/Impactor dose): 76.7%
  MMAD: 1.9 μm
  Fine particle mass (≤5 μm): 2201.8
[4]; 4.0 mg capsule, Release
  FPF % (FPM/Impactor dose): 75.3%
  MMAD: 1.9 μm
  Fine particle mass (≤5 μm): 2157.0
